Earlier results, collected in patent US11576379B2, “Antimicrobial composition comprising alkylated polyvinylpyrrolidone polymer” (The Procter & Gamble Company, priority 2019, dated 2023).

CC(=O)O.CC(=O)O.NC(=N\CCCCCC/N=C(N)/N=C(\N)Nc1ccc(Cl)cc1)/N=C(\N)Nc1ccc(Cl)cc1 [Chlorhexidine diaceate, Chlorhexidine diacetate]
Solubility in water: ~1%
